{"source": "paper PMC6272448", "about": "“Synthesis, ^18F-Radiolabelling and Biological Characterization of Novel Fluoroalkylated Triazine Derivatives for in Vivo Imaging of Phosphodiesterase 2A in Brain via Positron Emission Tomography” (Molecules, 2015)", "key": {"[1]": {"assay": "lipophilicity (logD7.4), shake-flask method", "assay_type": "physicochemical", "settings": "n-octanol/PBS (1:1, v/v), n-octanol / PBS pH 7.4, ambient temperature, fourfold determination", "description": "(§1) To estimate the lipophilicity of [^18F]TA3 and [^18F]TA4, the distribution coefficients were determined by partitioning between n-octanol and phosphate buffered saline (PBS, pH 7.4) at ambient temperature using the conventional shake-flask method. […] In vitro stability of each radioligand was investigated in phosphate buffered saline (PBS, pH 7.4), n-octanol and pig plasma after 60 min incubation at 37 °C.\nThe lipophilicity of [^18F]TA3 or [^18F]TA4 was determined by partitioning between n-octanol and phosphate buffered saline (PBS, pH 7.4) at ambient temperature using the conventional shake-flask method. An aliquot of 10 µL of the formulated solutions of each [^18F]TA3 or [^18F]TA4 with approximately 1 MBq of the radioligand was added to a tube containing 6 mL of the n-octanol/PBS-mixture (1:1, v/v, fourfold determination). The tubes were shaken for 20 min using a mechanical shaker (HS250 basic, IKA Labortechnik GmbH & Co. KG, Staufen, Germany) followed by centrifugation (5000 rpm for 5 min) and separation of the phases. Aliquots of each 1 mL were taken from the organic and the aqueous phase and activity was measured using an automated gamma counter (1480 WIZARD, Fa. Perkin Elmer, Waltham, MA, USA). The distribution coefficient (D) was calculated as [activity (cpm/mL) in n-octanol]/[activity (cpm/mL) in PBS, pH 7.4] specified as the decade logarithm (logD7.4)."}, "[2]": {"assay": "in vitro stability in PBS, n-octanol and pig plasma", "assay_type": "in vitro ADME", "settings": "PBS pH 7.4, n-octanol and pig plasma, 60 min at 37 °C; radio-TLC and radio-HPLC", "description": "as §1\nIn vitro stabilities of [^18F]TA3 or [^18F]TA4 were investigated by incubation of the radioligands in phosphate buffered saline (PBS, pH 7.4), n-octanol and pig plasma at 37 °C for 60 min (~5 MBq of the radioligand added to 500 µL of each medium). Samples were taken at 15, 30 and 60 min after incubation and analyzed by radio-TLC and radio-HPLC (system B)."}, "[3]": {"assay": "in vivo metabolism in mice, conventional extraction and RP-HPLC", "settings": "CD-1 mice, 30 min p.i., 150 MBq, extraction + RP-HPLC", "description": "In vivo metabolism of [^18F]TA3 and [^18F]TA4 was investigated in plasma and brain samples obtained from CD-1 mice at 30 min post injection of 150 MBq of each radioligand. Analysis of the samples was performed after protein precipitation and twofold extraction using an organic solvent. […] In brain samples, 50% of total activity were represented by intact [^18F]TA3 (Figure 7; recovery: 65%).\n(§2) The radioligands [^18F]TA3 or [^18F]TA4 (~60 MBq in 150 µL isotonic saline) were injected via the tail vein in female CD-1 mice (10–12 weeks old). Brain and blood samples were obtained at 30 min p.i., plasma separated by centrifugation (14,000× g, 1 min), and brain homogenized in ~1 mL isotonic saline on ice (10 strokes of a PTFE plunge at 1000 rpm in a borosilicate glass cylinder; Potter S Homogenizer, B. Braun Melsungen AG, Melsungen, Germany).\nTwofold extractions of plasma (2 × 50 µL, 30 min p.i.) and brain samples (2 × 250 µL, 30 min p.i.) were performed using a mixture of ice-cold acetone/water (8:2, v/v; plasma or brain sample/organic solvent, 1:4, v/v). The samples were vortexed for 1 min, incubated on ice for 10 min (first extraction) or 5 min (second extraction) and centrifuged at 10,000 rpm for 5 min. Supernatants were collected and the precipitates were re-dissolved in ice-cold acetone/water for the second extraction. Aliquots from supernatants of each extraction step were taken. Activity thereof and of the precipitates was quantified using an automated gamma counter (1480 WIZARD, Fa. Perkin Elmer). The supernatants from both extractions were combined, concentrated under nitrogen stream at 70 °C and analyzed by radio-HPLC (system B)."}, "[4]": {"assay": "in vivo metabolism in mice, micellar HPLC (MLC)", "settings": "CD-1 mice, 30 min p.i.; for intact radioligand in brain: brain homogenate; for intact radioligand in plasma: direct injection", "excerpt": "Therefore we used micellar HPLC (MLC), because this method allows the direct injection of plasma samples without deproteination. MLC was recently investigated by Nakao et al. regarding their suitability for direct plasma metabolite analysis of PET radioligands. As eluent a mixture of an aqueous solution of sodium dodecyl sulphate (SDS), phosphate buffer and 1-propanol was used. According to the published procedure, a gradient mode was applied starting under micellar conditions to completely elute the protein fraction and release the protein bound ^18F-compounds by the SDS micelles. Subsequent increase of the amount of 1-propanol as organic modifier leads to high submicellar conditions resulting in the elution of the intact radioligand and its radio-metabolites.\nas §2\nFor preparation of the MLC injection samples, mouse plasma (20–50 µL, 30 min p.i.) was dissolved in 100–300 µL of 200 mM aqueous SDS and injected directly into the MLC system (500 µL sample loop; column: Reprosil-Pur C18-AQ, 250 × 4.6 mm, particle size: 10 µm; gradient: 0–15 min: 3% 1-PrOH, 15–40 min: 3% → 30% 1-PrOH; 40–49 min: 30% 1-PrOH, 49–50 min: 30% → 3% 1-PrOH; 50–60 min: 3% 1-PrOH/100 mM SDS, 10 mM Na2HPO4; flow: 1 mL/min; ambient temperature). […] Homogenized brain material (100–200 µL, 30 min p.i.) was dissolved in 500 µL of 200 mM aqueous SDS, stirred at 75 °C for 5 min and after cooling to ambient temperature injected into the MLC system."}}, "data": [{"smiles": "COc1ccc2nnc3c(C)nc(-c4cc(OCCCC[18F])ccc4F)n3c2n1", "note": "[[^18F]TA4]", "values": [{"measurement": "logD", "setting": "[1]", "value": "2.99 ± 0.15"}, {"measurement": "in vitro stability", "setting": "[2]", "value": "stable in all media tested in vitro"}, {"measurement": "intact radioligand in brain", "setting": "[3]", "value": "No intact [^18F]TA4 was detectable"}, {"measurement": "non-metabolized (intact) radioligand in plasma", "setting": "[3]", "value": "6 % of total activity"}, {"measurement": "intact radioligand in brain", "setting": "[4]", "value": "4 % of total activity"}, {"measurement": "intact radioligand in plasma", "setting": "[4]", "value": "5 % of total activity"}]}, {"smiles": "COc1ccc2nnc3c(C)nc(-c4cc(OCCC[18F])ccc4F)n3c2n1", "note": "[[^18F]TA3]", "values": [{"measurement": "logD", "setting": "[1]", "value": "3.37 ± 0.14"}, {"measurement": "in vitro stability", "setting": "[2]", "value": "stable in all media tested in vitro"}, {"measurement": "intact radioligand in brain", "setting": "[3]", "value": "50 % of total activity"}, {"measurement": "non-metabolized (intact) radioligand in plasma", "setting": "[3]", "value": "8 % of total activity"}, {"measurement": "intact radioligand in brain", "setting": "[4]", "value": "29 % of total activity"}, {"measurement": "intact radioligand in plasma", "setting": "[4]", "value": "5 % of total activity"}]}]}
